In patent US20200339691A1, “PROTEINACEOUS MOLECULES AND USES THEREFOR” (priority 2018, published 2020):
Where a SMILES comes first, the peptide text is derived from it. The star is where a group is joined. Myristoyl = CCCCCCCCCCCCCC(=O)*

Tests used:
[1] = tested on: MDA-MB-231 cells; format: cell-based, human; details: 50 μM peptide, 48 hours, n = 1;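 for COI, Live Single Cells (Cell Count): live means Hoechst-negative events among single cells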
Description: (§1) Non-adherent cells were removed during the washing steps.

[2] = tested on: CD44^hiCD24^lo CSCs in MDA-MB-231 cells; test: FACS analysis of CD44^hiCD24^lo cancer stem cells in MDA-MB-231 cells treated with P1 analogues; format: cell-based, human; details: 50 μM peptide, 48 hours; for CD44^hiCD24^lo CSCs (%) / COI, Live Single CD44^hiCD24^lo CSCs (Cell Count): n = 1; for Average Inhibition of CSCs (%) / CD44^hiCD24^lo CSCs (%) Repeat 1 / CD44^hiCD24^lo CSCs (%) Repeat 2 / CD44^hiCD24^lo CSCs (%) Repeat 3: n = 3
Description: Analogues of P1 (Table 6) were designed and synthesized in accordance with the procedure of Example 5. The ability of these analogues to inhibit cancer stem cells was determined using FACS analysis on MDA-MB-231 cells, which constitutively contain approximately 90% CD44^hiCD24^lo cancer stem cells, treated with the peptides.
as §1

Compound	COI (Cell Count) [1]	COI, Live Single Cells (Cell Count) [1]	COI, Single (Cell Count) [1]	Total Cell Count [1]	Inhibition of CSCs (%) Repeat 1 [2] [%]	Inhibition of CSCs (%) Repeat 2 [2] [%]	Inhibition of CSCs (%) Repeat 3 [2] [%]	CD44^hiCD24^lo CSCs (%) [2] [%]	COI, Live Single CD44^hiCD24^lo CSCs (Cell Count) [2]	Average Inhibition of CSCs (%) [2] [%]	CD44^hiCD24^lo CSCs (%) Repeat 1 [2] [%]	CD44^hiCD24^lo CSCs (%) Repeat 2 [2] [%]	CD44^hiCD24^lo CSCs (%) Repeat 3 [2] [%]
CCCCCCCCCCCCCC(=O)N[C@@H](CC(C)C)C(=O)N[C@H](C(=O)N[C@@H](CCCCN)C(=O)N[C@H](C(=O)N[C@@H](Cc1ccccc1)C(=O)N[C@@H](CCCNC(=N)N)C(=O)N[C@@H](CC(C)C)C(=O)N[C@@H](CCCNC(=N)N)C(=O)N[C@@H](CCCCN)C(=O)NCC(=O)N[C@@H](CCCNC(=N)N)C(=O)N[C@@H](CCSC)C(=O)N[C@@H](CCSC)C(=O)N[C@@H](CC(=O)O)C(=O)N[C@H](C(=O)N[C@@H](CCCCN)C(=O)N[C@@H](CCCCN)C(N)=O)C(C)C)[C@@H](C)CC)[C@@H](C)O [Peptide 2853808, Myristoyl-LTKIFRLRKGRMMDVKK-NH2] (Myristoyl-LTKIFRLRKGRMMDVKK-NH2)	323	242	279	1192	87.54	84.31	84.48	10.74	26	85.44	11.17	14.07	13.92
CCCCCCCCCCCCCC(=O)N[C@@H](CC(C)C)C(=O)N[C@H](C(=O)N[C@H](C(=O)N[C@H](C(=O)N[C@@H](Cc1ccccc1)C(=O)N[C@@H](CCCNC(=N)N)C(=O)N[C@@H](CC(C)C)C(=O)N[C@@H](CCCNC(=N)N)C(=O)N[C@@H](CCCCN)C(=O)NCC(=O)N[C@@H](CCCNC(=N)N)C(=O)N[C@@H](CCSC)C(=O)N[C@@H](CCSC)C(=O)N[C@@H](CC(=O)O)C(=O)N[C@H](C(=O)N[C@@H](CCCCN)C(=O)N[C@@H](CCCCN)C(N)=O)C(C)C)[C@@H](C)CC)C(C)C)[C@@H](C)O [Peptide 2853809, Myristoyl-LTVIFRLRKGRMMDVKK-NH2] (Myristoyl-LTVIFRLRKGRMMDVKK-NH2)	1736	1508	1560	3548	49.62	53.48	60.55	35.61	537	54.55	45.15	41.73	35.40
CCCCCCCCCCCCCC(=O)N[C@@H](CC(C)C)C(=O)N[C@H](C(=O)N[C@@H](Cc1ccccc1)C(=O)N[C@@H](CCC(=O)O)C(=O)N[C@@H](Cc1ccccc1)C(=O)N[C@@H](CCCNC(=N)N)C(=O)N[C@@H](CC(C)C)C(=O)N[C@@H](CCCNC(=N)N)C(=O)N[C@@H](CCCCN)C(=O)NCC(=O)N[C@@H](CCCNC(=N)N)C(=O)N[C@@H](CCSC)C(=O)N[C@@H](CCSC)C(=O)N[C@@H](CC(=O)O)C(=O)N[C@H](C(=O)N[C@@H](CCCCN)C(=O)N[C@@H](CCCCN)C(N)=O)C(C)C)[C@@H](C)O [Peptide 2853810, Myristoyl-LTFEFRLRKGRMMDVKK-NH2] (Myristoyl-LTFEFRLRKGRMMDVKK-NH2)	778	545	613	3451	87.14	87.82	83.75	13.58	74	86.23	11.53	10.93	14.58
CCCCCCCCCCCCCC(=O)N[C@@H](CC(C)C)C(=O)N[C@H](C(=O)N[C@@H](Cc1ccccc1)C(=O)N[C@@H](CCCCN)C(=O)N[C@@H](Cc1ccccc1)C(=O)N[C@@H](CCCNC(=N)N)C(=O)N[C@@H](CC(C)C)C(=O)N[C@@H](CCCNC(=N)N)C(=O)N[C@@H](CCCCN)C(=O)NCC(=O)N[C@@H](CCCNC(=N)N)C(=O)N[C@@H](CCSC)C(=O)N[C@@H](CCSC)C(=O)N[C@@H](CC(=O)O)C(=O)N[C@H](C(=O)N[C@@H](CCCCN)C(=O)N[C@@H](CCCCN)C(N)=O)C(C)C)[C@@H](C)O [Peptide 2853811, Myristoyl-LTFKFRLRKGRMMDVKK-NH2] (Myristoyl-LTFKFRLRKGRMMDVKK-NH2)	79	64	69	1274	57.93	62.10	67.22	39.06	25	62.42	37.70	34.00	29.41
CCCCCCCCCCCCCC(=O)N[C@@H](CC(C)C)C(=O)N[C@H](C(=O)N[C@@H](Cc1ccccc1)C(=O)N[C@@H](CC(C)C)C(=O)N[C@@H](Cc1ccccc1)C(=O)N[C@@H](CCCNC(=N)N)C(=O)N[C@@H](CC(C)C)C(=O)N[C@@H](CCCNC(=N)N)C(=O)N[C@@H](CCCCN)C(=O)NCC(=O)N[C@@H](CCCNC(=N)N)C(=O)N[C@@H](CCSC)C(=O)N[C@@H](CCSC)C(=O)N[C@@H](CC(=O)O)C(=O)N[C@H](C(=O)N[C@@H](CCCCN)C(=O)N[C@@H](CCCCN)C(N)=O)C(C)C)[C@@H](C)O [Peptide 2853812, Myristoyl-LTFLFRLRKGRMMDVKK-NH2] (Myristoyl-LTFLFRLRKGRMMDVKK-NH2)	108	84	87	3794	80.95	86.31	86.89	16.67	14	84.72	17.07	12.28	11.76
CCCCCCCCCCCCCC(=O)N[C@@H](CC(C)C)C(=O)N[C@H](C(=O)N[C@@H](Cc1ccccc1)C(=O)N[C@H](C(=O)N[C@@H](CCC(=O)O)C(=O)N[C@@H](CCCNC(=N)N)C(=O)N[C@@H](CC(C)C)C(=O)N[C@@H](CCCNC(=N)N)C(=O)N[C@@H](CCCCN)C(=O)NCC(=O)N[C@@H](CCCNC(=N)N)C(=O)N[C@@H](CCSC)C(=O)N[C@@H](CCSC)C(=O)N[C@@H](CC(=O)O)C(=O)N[C@H](C(=O)N[C@@H](CCCCN)C(=O)N[C@@H](CCCCN)C(N)=O)C(C)C)[C@@H](C)CC)[C@@H](C)O [Peptide 2853813, Myristoyl-LTFIERLRKGRMMDVKK-NH2] (Myristoyl-LTFIERLRKGRMMDVKK-NH2)	55	18	48	867	77.05	75.44	67.63	27.78	5	73.37	20.57	22.04	29.05
CCCCCCCCCCCCCC(=O)N[C@@H](CC(C)C)C(=O)N[C@H](C(=O)N[C@@H](Cc1ccccc1)C(=O)N[C@H](C(=O)N[C@@H](Cc1ccc(O)cc1)C(=O)N[C@@H](CCCNC(=N)N)C(=O)N[C@@H](CC(C)C)C(=O)N[C@@H](CCCNC(=N)N)C(=O)N[C@@H](CCCCN)C(=O)NCC(=O)N[C@@H](CCCNC(=N)N)C(=O)N[C@@H](CCSC)C(=O)N[C@@H](CCSC)C(=O)N[C@@H](CC(=O)O)C(=O)N[C@H](C(=O)N[C@@H](CCCCN)C(=O)N[C@@H](CCCCN)C(N)=O)C(C)C)[C@@H](C)CC)[C@@H](C)O [Peptide 2853814, Myristoyl-LTFIYRLRKGRMMDVKK-NH2] (Myristoyl-LTFIYRLRKGRMMDVKK-NH2)	437	368	387	999	73.80	76.59	77.85	13.86	51	76.08	23.48	21.00	19.88
CCCCCCCCCCCCCC(=O)N[C@@H](CC(C)C)C(=O)N[C@H](C(=O)N[C@@H](Cc1ccccc1)C(=O)N[C@H](C(=O)N[C@@H](Cc1c[nH]cn1)C(=O)N[C@@H](CCCNC(=N)N)C(=O)N[C@@H](CC(C)C)C(=O)N[C@@H](CCCNC(=N)N)C(=O)N[C@@H](CCCCN)C(=O)NCC(=O)N[C@@H](CCCNC(=N)N)C(=O)N[C@@H](CCSC)C(=O)N[C@@H](CCSC)C(=O)N[C@@H](CC(=O)O)C(=O)N[C@H](C(=O)N[C@@H](CCCCN)C(=O)N[C@@H](CCCCN)C(N)=O)C(C)C)[C@@H](C)CC)[C@@H](C)O [Peptide 2853815, Myristoyl-LTFIHRLRKGRMMDVKK-NH2] (Myristoyl-LTFIHRLRKGRMMDVKK-NH2)	320	279	300	1114	6.67	7.21	8.72	71.33	199	7.53	83.65	83.25	81.91
